We go through one compound from publication PMC7600264, “Quasi-Irreversible Inhibition of CYP2D6 by Berberine” (Pharmaceutics, 2020).

The target of one data set is T1, CYP2C8 (Homo sapiens, UniProt P10632).
T1 sequence (P10632 1-490): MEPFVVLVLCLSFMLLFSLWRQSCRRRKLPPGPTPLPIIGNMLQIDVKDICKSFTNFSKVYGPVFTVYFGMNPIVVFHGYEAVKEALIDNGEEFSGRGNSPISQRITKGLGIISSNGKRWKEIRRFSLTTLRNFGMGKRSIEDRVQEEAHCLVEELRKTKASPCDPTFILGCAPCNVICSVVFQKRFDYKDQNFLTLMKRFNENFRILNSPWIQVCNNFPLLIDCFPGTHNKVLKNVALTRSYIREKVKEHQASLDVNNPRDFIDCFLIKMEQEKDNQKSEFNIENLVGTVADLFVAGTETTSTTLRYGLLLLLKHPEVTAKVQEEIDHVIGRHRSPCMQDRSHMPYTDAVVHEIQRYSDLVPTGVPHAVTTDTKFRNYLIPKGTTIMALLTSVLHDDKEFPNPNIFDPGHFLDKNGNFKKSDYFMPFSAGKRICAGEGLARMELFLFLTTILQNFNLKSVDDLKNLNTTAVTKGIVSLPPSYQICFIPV
The data set is described as follows: Direct CYP inhibition assay using pooled HLM. Particulars: microsomes.

The next data set deals with T2, CYP2B6 (Homo sapiens, UniProt P20813).
T2 sequence (P20813 1-491): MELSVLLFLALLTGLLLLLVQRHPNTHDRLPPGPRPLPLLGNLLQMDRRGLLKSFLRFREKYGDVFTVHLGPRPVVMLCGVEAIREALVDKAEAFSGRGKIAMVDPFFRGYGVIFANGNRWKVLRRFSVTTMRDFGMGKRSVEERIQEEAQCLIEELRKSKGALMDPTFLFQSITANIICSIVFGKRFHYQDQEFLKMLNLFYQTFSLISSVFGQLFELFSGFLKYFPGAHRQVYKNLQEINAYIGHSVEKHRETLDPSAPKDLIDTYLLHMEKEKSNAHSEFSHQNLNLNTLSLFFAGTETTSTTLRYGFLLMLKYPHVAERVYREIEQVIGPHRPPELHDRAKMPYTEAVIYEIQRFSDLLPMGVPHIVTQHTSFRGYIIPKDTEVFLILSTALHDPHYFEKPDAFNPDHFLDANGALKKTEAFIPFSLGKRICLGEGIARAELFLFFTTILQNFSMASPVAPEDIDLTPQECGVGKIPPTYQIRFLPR
Put plainly: Direct CYP inhibition assay using pooled HLM. The conditions noted are these: read-out: IC50 CYP2B6; pooled HLM; direct inhibition; 95% confidence intervals in parentheses.

The target in another data set is CYP2D6 (Homo sapiens, UniProt P10635). The data set is described as follows: Direct CYP inhibition assay using pooled HLM. Particulars: microsomes.
Chain of CYP2D6 (P10635 whole entry): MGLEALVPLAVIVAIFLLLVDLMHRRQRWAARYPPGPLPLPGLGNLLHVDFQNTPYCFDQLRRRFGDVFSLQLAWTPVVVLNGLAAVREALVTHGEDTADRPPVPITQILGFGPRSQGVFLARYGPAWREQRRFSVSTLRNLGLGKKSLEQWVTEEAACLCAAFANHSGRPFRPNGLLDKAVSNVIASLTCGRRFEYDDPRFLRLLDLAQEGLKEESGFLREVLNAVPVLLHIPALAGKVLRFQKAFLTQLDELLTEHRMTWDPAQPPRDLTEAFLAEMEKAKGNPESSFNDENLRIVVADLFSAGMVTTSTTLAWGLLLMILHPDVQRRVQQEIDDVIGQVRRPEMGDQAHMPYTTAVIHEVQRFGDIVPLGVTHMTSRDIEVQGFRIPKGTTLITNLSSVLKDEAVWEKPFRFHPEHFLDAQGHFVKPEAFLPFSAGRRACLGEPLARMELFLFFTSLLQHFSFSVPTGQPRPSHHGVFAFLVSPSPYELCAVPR
The next data set addresses CYP2E1 (Homo sapiens, UniProt P05181). The data set is described as follows: Direct CYP inhibition assay using pooled HLM. Particulars: read-out: IC50 CYP2E1; pooled HLM; direct inhibition; 95% confidence intervals in parentheses.
The next data set concerns the target CYP2C19 (Homo sapiens, UniProt P33261). Put plainly: Direct CYP inhibition assay using pooled HLM. The conditions noted are these: read-out: IC50 CYP2C19; pooled HLM; direct inhibition; 95% confidence intervals in parentheses.
The next data set concerns the target CYP2C9 (Homo sapiens, UniProt P11712). The data set is described as follows: Direct CYP inhibition assay using pooled HLM. Particulars: microsomes.
The subject of a further data set is CYP enzymes. Put plainly: Direct CYP inhibition assay using pooled HLM, all CYP enzymes tested. In kind it is in vitro ADME, human. Particulars: read-out: IC50 values, range over all CYP enzymes tested (pan-CYP inhibitory activities).
For the next data set, the target named is T3, CYP1A2 (Homo sapiens, UniProt P05177).
T3 sequence (P05177 1-516): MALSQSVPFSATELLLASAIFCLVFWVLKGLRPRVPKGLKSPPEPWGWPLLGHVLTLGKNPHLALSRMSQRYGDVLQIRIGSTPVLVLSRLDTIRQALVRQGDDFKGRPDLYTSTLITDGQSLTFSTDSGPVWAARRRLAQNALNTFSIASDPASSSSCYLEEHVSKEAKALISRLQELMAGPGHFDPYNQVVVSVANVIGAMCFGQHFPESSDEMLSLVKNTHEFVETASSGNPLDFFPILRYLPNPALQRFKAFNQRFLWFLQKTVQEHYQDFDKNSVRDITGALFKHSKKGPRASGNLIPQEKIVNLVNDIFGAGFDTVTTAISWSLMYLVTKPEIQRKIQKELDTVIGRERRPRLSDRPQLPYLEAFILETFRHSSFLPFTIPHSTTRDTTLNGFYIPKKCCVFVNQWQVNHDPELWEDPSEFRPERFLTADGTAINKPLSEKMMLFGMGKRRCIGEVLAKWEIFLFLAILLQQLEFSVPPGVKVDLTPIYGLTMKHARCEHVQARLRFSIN
The data set is described as follows: Direct CYP inhibition assay using pooled HLM. The conditions noted are these: microsomes.

The target in a further data set is T4, CYP2A6 (Homo sapiens, UniProt P11509).
T4 sequence (P11509 1-494): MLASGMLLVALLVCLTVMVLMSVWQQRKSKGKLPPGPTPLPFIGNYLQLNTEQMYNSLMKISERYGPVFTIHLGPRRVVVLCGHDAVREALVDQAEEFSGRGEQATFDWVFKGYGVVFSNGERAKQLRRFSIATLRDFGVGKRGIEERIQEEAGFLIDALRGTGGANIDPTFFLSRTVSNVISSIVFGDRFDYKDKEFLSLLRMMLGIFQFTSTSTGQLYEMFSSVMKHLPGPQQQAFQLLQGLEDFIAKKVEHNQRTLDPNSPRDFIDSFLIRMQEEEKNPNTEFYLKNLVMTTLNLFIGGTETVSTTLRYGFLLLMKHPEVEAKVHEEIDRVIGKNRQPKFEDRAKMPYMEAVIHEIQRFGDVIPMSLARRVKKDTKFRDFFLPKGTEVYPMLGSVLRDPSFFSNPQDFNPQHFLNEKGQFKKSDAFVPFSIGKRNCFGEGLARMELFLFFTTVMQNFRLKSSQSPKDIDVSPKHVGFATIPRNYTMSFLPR
The data set is described as follows: Direct CYP inhibition assay using pooled HLM. The conditions noted are these: microsomes.

Chain of CYP2C19 (P33261 whole entry): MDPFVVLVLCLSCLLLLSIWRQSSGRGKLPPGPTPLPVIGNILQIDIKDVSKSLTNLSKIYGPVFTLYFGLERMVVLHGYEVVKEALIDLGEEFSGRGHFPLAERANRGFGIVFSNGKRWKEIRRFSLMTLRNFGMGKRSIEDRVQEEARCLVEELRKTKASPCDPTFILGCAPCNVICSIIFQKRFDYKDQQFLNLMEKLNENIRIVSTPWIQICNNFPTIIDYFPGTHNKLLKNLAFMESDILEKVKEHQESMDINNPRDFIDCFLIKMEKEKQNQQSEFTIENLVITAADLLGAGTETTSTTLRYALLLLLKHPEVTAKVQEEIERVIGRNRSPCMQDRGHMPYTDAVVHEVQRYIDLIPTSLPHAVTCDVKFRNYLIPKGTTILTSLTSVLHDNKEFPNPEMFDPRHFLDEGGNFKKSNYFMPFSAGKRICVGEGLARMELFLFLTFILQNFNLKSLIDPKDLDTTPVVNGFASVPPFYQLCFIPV
Chain of CYP2E1 (P05181 whole entry): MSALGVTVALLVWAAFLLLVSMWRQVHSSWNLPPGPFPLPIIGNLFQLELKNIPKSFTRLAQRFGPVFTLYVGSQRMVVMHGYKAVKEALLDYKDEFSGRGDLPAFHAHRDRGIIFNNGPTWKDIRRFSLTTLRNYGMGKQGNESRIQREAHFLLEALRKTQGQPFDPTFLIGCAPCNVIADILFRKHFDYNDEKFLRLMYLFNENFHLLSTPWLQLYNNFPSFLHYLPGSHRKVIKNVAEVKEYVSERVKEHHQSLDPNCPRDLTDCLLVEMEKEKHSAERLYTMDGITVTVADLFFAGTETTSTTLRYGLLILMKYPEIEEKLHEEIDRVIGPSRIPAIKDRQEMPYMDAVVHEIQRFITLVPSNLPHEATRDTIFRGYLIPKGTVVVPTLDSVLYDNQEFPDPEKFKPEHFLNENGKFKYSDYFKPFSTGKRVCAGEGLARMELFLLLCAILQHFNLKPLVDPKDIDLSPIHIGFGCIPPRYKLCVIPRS
Chain of CYP2C9 (P11712 whole entry): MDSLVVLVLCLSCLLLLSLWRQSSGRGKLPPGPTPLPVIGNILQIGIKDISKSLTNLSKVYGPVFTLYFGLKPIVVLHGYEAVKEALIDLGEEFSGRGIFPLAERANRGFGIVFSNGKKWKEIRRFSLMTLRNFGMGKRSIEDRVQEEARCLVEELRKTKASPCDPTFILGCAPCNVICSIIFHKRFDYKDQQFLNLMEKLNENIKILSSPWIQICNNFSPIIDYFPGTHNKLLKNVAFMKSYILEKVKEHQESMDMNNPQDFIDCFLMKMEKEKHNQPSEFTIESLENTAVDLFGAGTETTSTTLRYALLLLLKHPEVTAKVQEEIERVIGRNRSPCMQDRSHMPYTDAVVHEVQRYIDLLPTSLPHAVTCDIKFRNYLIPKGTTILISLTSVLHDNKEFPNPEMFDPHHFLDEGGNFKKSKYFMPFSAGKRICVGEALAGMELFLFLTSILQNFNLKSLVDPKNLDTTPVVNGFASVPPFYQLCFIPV
Method for CYP enzymes: (§1) The enzyme reactions were initiated by adding NADPH (1 mM), and the mixtures were incubated at 37 °C for 5 min in a shaking water bath (100 rpm). The reaction was terminated by adding ice-cold acetonitrile (ACN) containing CBZ (100 nM) and 4-methyl-umbelliferone (300 nM) as internal standards (IS).
The chromatographic separation was performed on an Agilent 1200 series HPLC system (Agilent Technologies, Santa Clara, CA, USA) equipped with an Atlantis^TM dC18 column (2.1 × 50 mm, 3 µm; Waters Corporation, Milford, MA, USA) with a SecuityGuard^TM C18 guard column (2.0 × 4.0 mm; Phenomenex, Torrance, CA, USA). The mobile phases consisted of double-deionized water (DDW) containing 0.1% (v/v) of formic acid (A) and ACN containing 0.1% (v/v) formic acid (B). […] The sample injection volume was 10 µL, and the total run time was 9.0 min. The column and auto-sampler compartments were maintained at 30 °C and 10 °C, respectively, throughout the analysis. The detection was performed using an API4000 Q-TRAP system equipped with a Turbo V Ion Spray^TM source (Applied Biosystems, Foster City, CA, USA). […] The samples were analyzed via multiple reaction monitoring (MRM) mode. […]
Method for CYP1A2: as §1
(§2) The chromatographic separation was performed on an Agilent 1200 series HPLC system (Agilent Technologies, Santa Clara, CA, USA) equipped with an Atlantis^TM dC18 column (2.1 × 50 mm, 3 µm; Waters Corporation, Milford, MA, USA) with a SecuityGuard^TM C18 guard column (2.0 × 4.0 mm; Phenomenex, Torrance, CA, USA). The mobile phases consisted of double-deionized water (DDW) containing 0.1% (v/v) of formic acid (A) and ACN containing 0.1% (v/v) formic acid (B). […] The sample injection volume was 10 µL, and the total run time was 9.0 min. The column and auto-sampler compartments were maintained at 30 °C and 10 °C, respectively, throughout the analysis. The detection was performed using an API4000 Q-TRAP system equipped with a Turbo V Ion Spray^TM source (Applied Biosystems, Foster City, CA, USA). The operating conditions were optimized as follows: ionization voltage: 5500 V for positive-ion mode and −4500 V for negative-ion mode; ion source temperature: 550 °C; nebulizing gas flow: 50 L/min; auxiliary gas flow: 40 L/min; and curtain gas flow: 30 L/min. The samples were analyzed via multiple reaction monitoring (MRM) mode. […] The data acquisition and processing were performed using Analyst^TM software (version 1.5.2; Applied Biosystems, Foster City, CA, USA).
Method for CYP2A6: as §1, §2
Method for CYP2B6: as §1, §2
Method for CYP2C19: as §1, §2
Method for CYP2C8: as §1, §2
Method for CYP2C9: as §1, §2
Method for CYP2D6: as §1, §2
Method for CYP2E1: as §1, §2

One may read the IC50 as the concentration that inhibits the measured activity by half. Turning to `COc1ccc2c(c1O)CN1CCc3cc4c(cc3C1C2)OCO4` (stereo not drawn) [TRB, Tetrahydroberberrubine·acetate], the IC50 on CYP2C8 was determined as 9.5 µM; on CYP2B6, 9.6 µM; on CYP2D6, 3.4 µM; on CYP2E1 it was 2.7 µM; at CYP2C19, 5.4 µM; against CYP2C9, 6.5 µM. Besides, the IC50 with CYP enzymes was 2.7 to 9.6 µM; on CYP1A2, 6.9 µM; against CYP2A6, 4.7 µM.
